Measured values: patent US11957682B2, “Compounds and methods for regulating, limiting, or inhibiting AVIL expression” (University of Virginia Patent Foundation, priority 2017, dated 2024)

Columns and labels:
[1] = test system: U87 xenograft; assay: U87 xenograft model, intra-tumor injection; type: in vivo, NIH-III Nude mice
Protocol: Astrocytes stably expressing AVIL or an empty vector were injected subcutaneously into the flanks of NIH-III Nude mice. Around 2 million cells were used per injection. The animals were monitored twice a week. For drug treatment, 1.5 million U87 cells were injected subcutaneously into the flanks of NIH-III Nude mice. Compound 56750508 was dissolved in 50% DMSO, 15% ethanol, and 35% water. After tumors became visible (around 2 weeks), 50 ul drug solution or solvent was injected intra-tumorly. Three injections were performed with two day intervals.
(§1) The effect of the three compounds on LIN28B expression was tested. […] To test whether the compounds can trigger transcriptome response similar to siAVIL, a microarray analysis of the U87 cells treated with these compounds was performed. Strikingly, cells treated with all three compounds had similar transcriptome profiles when compared to that of the siAVIL transfected cells, by both gene ontology and Gene Set Enrichment analyses (example in FIGS. 7F and 7G).

[2] = test system: glioblastoma cells (U87); assay: IC50 for inhibiting cell growth in glioblastoma cells (U87); type: cell-based, human; settings: inhibition of cell growth
Protocol: (§2) Cell Culture. The rhabdomyosarcoma cell lines RH30, RH18, and RD were cultured in RPMI-1640 medium with 10% FBS. RH18 was a gift from Dr. P. J. Houghton. Glioblastoma cell line U87 cells were cultured in Minimum Essential Medium Eagle (MEM), supplemented with 1 mM sodium pyruvate, 1% nonessential amino acids, 0.15% sodium bicarbonate, and 10% fetal bovine serum (FBS); T98G cells were cultured in MEM with 10% FBS; A172 cells were cultured in Dulbecco's modified Eagle's medium (DMEM) with 4.5 g/L glucose, and supplemented with 10% FBS; U251 cells were cultured in Roswell Park Memorial Institute medium with 5% FBS. Immortalized human astrocytes (a kind gift from Dr. Russ Pieper, University of California San Francisco) were grown in DMEM/F12 with 4.5 g/L of glucose, supplemented with 10% FBS. All cells were grown at 37° C. in 5% CO2-[…]. All cell lines unless specified were originally obtained from ATCC. They were not further authenticated.
(§3) In this example, samples of glioblastoma cells (U87) and astrocyte cells (non-cancer control) were exposed various disclosed compounds to determine the effectiveness of the compounds for inhibiting cell growth.

[3] = test system: U87 cells; assay: Microarray analysis of U87 cells treated with compounds (gene ontology, GSEA); type: cell-based, human; settings: gene set downregulated by siAVIL
Protocol: as §1

[4] = test system: GBM lines (U87, A172, U251, and T98G); assay: Cellular assays using GBM cell lines and immortalized astrocytes; type: cell-based, human; settings: four GBM lines (U87, A172, U251, T98G) versus astrocytes
Protocol: as §2
To investigate whether AVIL is a viable drug target, a platform of small-molecule microarray was utilized (Bradner et al., 2006a; Bradner et al., 2006b) in order to identify compounds that interact with the AVIL protein. 50,000 small molecules were screened with recombinant advillin protein, including commercially available compounds, products of diversity-oriented synthesis, and known bioactive compounds. From these compounds, 82 advillin-interacting compounds were identified (FIG. 7A). […] Pubchem ID for the three compounds are as follows: Compound A is CID 56750508, Compound B is CID 56890068, and Compound C is CID 70768068.

[5] = test system: RD rhabdomyosarcoma cells; assay: Cell survival / crystal violet staining of RD cells; type: cell-based; settings: 20 μM
Protocol: as §2
(§4) RH30 and RD are rhabdomyosarcoma cells. MSC is mesenchymal stem cells, as a non-cancer control.

[6] = test system: MSC mesenchymal stem cells (non-cancer control); assay: Cell survival / crystal violet staining of MSC cells; type: cell-based; settings: 20 μM
Text: as §4

[7] = molecular target: T1, advillin recombinant protein (AVIL) (Homo sapiens, UniProt O75366); assay: Thermal shift assay; type: binding; settings: for binding with advillin recombinant protein: thermal shift assay
T1 construct: MBP (N, cleaved yes); made in house; host or cells: E. coli BL21 (DE3)
T1 sequence (O75366 1-819): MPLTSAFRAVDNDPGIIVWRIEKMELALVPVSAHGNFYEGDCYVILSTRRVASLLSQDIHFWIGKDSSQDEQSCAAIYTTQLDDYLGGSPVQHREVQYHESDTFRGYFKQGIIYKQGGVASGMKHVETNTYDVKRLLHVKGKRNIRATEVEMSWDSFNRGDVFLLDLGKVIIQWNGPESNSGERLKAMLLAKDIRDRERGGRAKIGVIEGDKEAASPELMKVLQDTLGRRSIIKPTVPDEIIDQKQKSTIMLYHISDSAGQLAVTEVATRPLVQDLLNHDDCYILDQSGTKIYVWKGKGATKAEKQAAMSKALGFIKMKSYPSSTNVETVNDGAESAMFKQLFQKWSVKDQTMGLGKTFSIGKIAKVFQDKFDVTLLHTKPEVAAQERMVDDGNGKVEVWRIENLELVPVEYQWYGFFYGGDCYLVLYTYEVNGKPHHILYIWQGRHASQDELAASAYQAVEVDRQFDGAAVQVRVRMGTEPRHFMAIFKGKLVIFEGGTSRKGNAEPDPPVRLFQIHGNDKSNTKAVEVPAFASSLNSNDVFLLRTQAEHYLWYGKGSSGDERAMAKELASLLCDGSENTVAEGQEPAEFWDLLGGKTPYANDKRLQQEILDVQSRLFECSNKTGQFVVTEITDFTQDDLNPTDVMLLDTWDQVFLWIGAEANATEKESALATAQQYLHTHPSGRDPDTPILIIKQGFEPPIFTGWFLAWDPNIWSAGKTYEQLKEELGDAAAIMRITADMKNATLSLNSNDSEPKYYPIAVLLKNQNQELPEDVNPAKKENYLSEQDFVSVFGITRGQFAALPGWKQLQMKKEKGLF
Protocol: Protein purification. The sequence for human Advillin (AVIL) was cloned into the pMAL-c4x vector. The corresponding plasmid was transformed into BL21 (DE3) cells. Expression of MBP-AVIL was induced at OD600≈0.7 by the addition of 1 mM IPTG, and continued for 18 hrs at 23° C. Harvested cells were subsequently resuspended in 20 mM Tris-HCl pH 7.4, 200 mM NaCl, 1 mM EDTA, 1 mM DTT (Wash Buffer), supplemented with Complete Protease Inhibitor Cocktail (Roche), lysed in Emulsiflex C3 (AVESTIN) and cell debris was removed by centrifugation. MBP-AVIL was immobilized on Amylose Resin (New England BioLabs) followed by extensive washing (>50 column volumes) with Wash Buffer. Protein was eluted with Wash Buffer supplemented with 10 mM Maltose. After overnight incubation with TEV protease, MBP-tag was removed by size exclusion on HiLoad 16/600 Superdex 200 pg columns, previously equilibrated to 20 mM HEPES, pH 7.4, 50 mM NaCl, 1 mM DTT (Protein Buffer). Recombinant AVIL was flash-frozen in liquid nitrogen and stored in −80° C.
Thermal shift assay. SYPRO Orange (ThermoFisher Scientific) was added to 0.5 mg/ml AVIL (in Protein Buffer) in a 1:4500 ratio. 2.5 uL increasing concentrations of candidate compounds were added to 22.5 μL of AVIL/SYPRO Orange mixture on a 96 well plate (10% final concentration of DMSO). Protein unfolding was measured in a CFX96 qPCR (Bio-Rad) instrument with 0.2° C./15 sec steps, over the range of 20-90° C.

[8] = test system: RH30 rhabdomyosarcoma cells; assay: Cell survival / crystal violet staining of RH30 cells; type: cell-based; settings: 20 μM
Protocol: as §2, §4

[9] = test system: astrocyte cells (non-cancer control); assay: IC50 for inhibiting cell growth in astrocyte cells (non-cancer control); type: cell-based, human; settings: inhibition of cell growth
Protocol: as §2, §3

[10] = three intra-tumor injections with two day intervals, versus solvent control, at harvest

Compound	IC50 ([2]; Homo sapiens) [µM]	IC50 ([9]; Homo sapiens, Astrocyte) [µM]	further results
Nc1nccc(N2CCCC(CO)(CCCc3ccccc3)C2)n1 (stereo not shown) [Compound A]	9	55	side effect in the animals ([1]; three injections): did not observe any obvious side effect; tumor volume [1, 10]: significantly smaller; tumor weight [1, 10]: significantly smaller; GSEA enrichment score [3]: highest GSEA enrichment score; IC50 values in GBM lines compared to astrocytes [4]: significantly different IC50 values; effect on RD cells [5]: most if not all of the RH30 and RD cells were wiped out; effect on MSC cells [6]: no significant effect; melting temperature (Tm) shift of AVIL protein ([7]; increasing concentrations of compound): dose-dependent melting temperature (Tm) shift; binding with advillin recombinant protein [7]: confirmed binding; effect on RH30 cells [8]: most if not all of the RH30 and RD cells were wiped out
c1ccc(CCC2CCN(CC3[C@H]4CNC[C@@H]34)CC2)cc1 (stereo partly shown) [Compound B]	–	–	IC50 values in GBM lines compared to astrocytes [4]: significantly different IC50 values; binding with advillin recombinant protein [7]: confirmed binding
CN(Cc1ccc(Oc2ccccc2)cc1)C(=O)C1C[C@@H](O)CN1 (stereo partly shown) [Compound C]	–	–	IC50 values in GBM lines compared to astrocytes [4]: significantly different IC50 values; binding with advillin recombinant protein [7]: confirmed binding
Cc1nccc(N2CCCC(CO)(CCCc3ccccc3)C2)n1 (stereo not shown) [Compound I]	19	80	–
Nc1cc(N2CCC(CO)(CCCc3ccccc3)CC2)nc(N)n1 [D]	2.5	51	–
Nc1nccc(N2CCCC(CCc3ccccc3)C2)n1 (stereo not shown) [E]	1	30	–
Nc1nccc(N2CCC(CO)(CCCc3ccccc3)CC2)n1 [F]	4	28	–
Nc1cc(N2CCCC(CO)(CCCc3ccccc3)C2)nc(N)n1 (stereo not shown) [G]	10	> 80	–
Nc1cc(N2CCCC(CO)(CCCc3ccccc3)C2)nc(N)n1 (stereo not shown) [H]	–	–	IC50 [2]: 8 µM; IC50 [9]: 59 µM
Nc1cc(N2CCCC(CO)(CCCc3ccccc3)C2)ncn1 (stereo not shown) [J]	20	> 80	–
Nc1cc(N2CCCC(CCCc3ccccc3)(C(=O)O)C2)nc(N)n1 (stereo not shown) [K]	39	34	–
CCCC1(CO)CCCN(c2cc(N3CCN(C)CC3)nc(N)n2)C1 (stereo not shown) [L]	> 80	> 80	–
